Measurements: the NIST ThermoML archive (doi:10.1016/j.jct.2016.03.030)
± gives the expanded uncertainty stated by the source.

Test: xn = mol fraction of the nth substance listed
Conditions: 100 kPa, Liquid; for viscosity: Falling or rolling sphere viscometry; for mass density: Vibrating tube method

CCCCC[N+]1(C)CCCCC1.[Br-] [1-methyl-1-pentylpiperidinium bromide] + O
Conditions | mass density [kg/m3] | viscosity [mPa·s]
298.15 K, x1 = 0.003 | 1003.5 ± 1.1 | –
298.15 K, x1 = 0.0072 | 1012 ± 1.1 | –
298.15 K, x1 = 0.0119 | 1021.1 ± 1.1 | –
298.15 K, x1 = 0.0427 | 1070.7 ± 1 | 2.961 ± 0.3
298.15 K, x1 = 0.0615 | 1091.4 ± 1 | 4.385 ± 0.44
298.15 K, x1 = 0.0839 | 1110.2 ± 1 | 6.713 ± 0.67
298.15 K, x1 = 0.1192 | 1131.1 ± 1 | 12.34 ± 1.2
298.15 K, x1 = 0.1491 | 1144 ± 1 | 17.14 ± 1.7
298.15 K, x1 = 0.2004 | 1159.3 ± 1.1 | 27.79 ± 2.8
298.15 K, x1 = 0.2206 | 1163.7 ± 1.1 | 41.58 ± 4.2
298.15 K, x1 = 0.2393 | 1167.7 ± 1.1 | 58.11 ± 5.8
298.15 K, x1 = 0.2655 | 1172.3 ± 1.2 | 95.22 ± 9.7
298.15 K, x1 = 0.2745 | 1173.8 ± 1.2 | 107.8 ± 11
303.15 K, x1 = 0.003 | 1002 ± 1.1 | –
303.15 K, x1 = 0.0072 | 1010.4 ± 1.1 | –
303.15 K, x1 = 0.0119 | 1019.3 ± 1.1 | –
303.15 K, x1 = 0.0427 | 1067.8 ± 1 | 2.439 ± 0.24
303.15 K, x1 = 0.0615 | 1088.2 ± 1 | 3.663 ± 0.37
303.15 K, x1 = 0.0839 | 1106.7 ± 1 | 5.513 ± 0.55
303.15 K, x1 = 0.1192 | 1127.5 ± 1 | 9.841 ± 0.99
303.15 K, x1 = 0.1491 | 1140.4 ± 1 | 12.93 ± 1.3
303.15 K, x1 = 0.2004 | 1153.7 ± 1.1 | 21.75 ± 2.2
303.15 K, x1 = 0.2206 | 1160.2 ± 1.1 | 29.41 ± 3
303.15 K, x1 = 0.2393 | 1164.2 ± 1.1 | 44.51 ± 4.5
303.15 K, x1 = 0.2655 | 1168.8 ± 1.2 | 68.59 ± 6.9
303.15 K, x1 = 0.2745 | 1170.3 ± 1.2 | 77.28 ± 7.8
308.15 K, x1 = 0.003 | 1000.2 ± 1.1 | –
308.15 K, x1 = 0.0072 | 1008.6 ± 1.1 | –
308.15 K, x1 = 0.0119 | 1017.3 ± 1.1 | –
308.15 K, x1 = 0.0427 | 1064.8 ± 1 | 1.881 ± 0.19
308.15 K, x1 = 0.0615 | 1084.9 ± 1 | 3.087 ± 0.31
308.15 K, x1 = 0.0839 | 1103.2 ± 1 | 4.576 ± 0.46
308.15 K, x1 = 0.1192 | 1123.9 ± 1 | 8.001 ± 0.8
308.15 K, x1 = 0.1491 | 1136.8 ± 1 | 9.983 ± 1
308.15 K, x1 = 0.2004 | 1152.1 ± 1.1 | 16.35 ± 1.6
308.15 K, x1 = 0.2206 | 1156.7 ± 1.1 | 23.02 ± 2.3
308.15 K, x1 = 0.2393 | 1160.7 ± 1.1 | 33.69 ± 3.4
308.15 K, x1 = 0.2655 | 1165.3 ± 1.2 | 50.52 ± 5.1
308.15 K, x1 = 0.2745 | 1166.8 ± 1.2 | 56.51 ± 5.7
313.15 K, x1 = 0.003 | 998.2 ± 1.1 | –
313.15 K, x1 = 0.0072 | 1006.5 ± 1.1 | –
313.15 K, x1 = 0.0119 | 1015.1 ± 1.1 | –
313.15 K, x1 = 0.0427 | 1061.8 ± 1 | 1.639 ± 0.16
313.15 K, x1 = 0.0615 | 1081.5 ± 1 | 2.632 ± 0.26
313.15 K, x1 = 0.0839 | 1099.7 ± 1 | 3.846 ± 0.39
313.15 K, x1 = 0.1192 | 1120.3 ± 1 | 6.581 ± 0.66
313.15 K, x1 = 0.1491 | 1133.2 ± 1 | 8.698 ± 0.87
313.15 K, x1 = 0.2004 | 1148.2 ± 1.1 | 14.09 ± 1.4
313.15 K, x1 = 0.2206 | 1153.1 ± 1.1 | 18.11 ± 1.8
313.15 K, x1 = 0.2393 | 1157.1 ± 1.1 | 25.85 ± 2.6
313.15 K, x1 = 0.2655 | 1161.8 ± 1.2 | 38.16 ± 3.8
313.15 K, x1 = 0.2745 | 1163.3 ± 1.2 | 42.34 ± 4.3
318.15 K, x1 = 0.003 | 996.1 ± 1.1 | –
318.15 K, x1 = 0.0072 | 1004.2 ± 1.1 | –
318.15 K, x1 = 0.0119 | 1012.8 ± 1.1 | –
318.15 K, x1 = 0.0427 | 1058.7 ± 1 | 1.441 ± 0.14
318.15 K, x1 = 0.0615 | 1078.1 ± 1 | 2.267 ± 0.23
318.15 K, x1 = 0.0839 | 1096.1 ± 1 | 3.269 ± 0.33
318.15 K, x1 = 0.1192 | 1116.6 ± 1 | 5.458 ± 0.55
318.15 K, x1 = 0.1491 | 1129.5 ± 1 | 7.311 ± 0.73
318.15 K, x1 = 0.2004 | 1144.5 ± 1.1 | 11.22 ± 1.1
318.15 K, x1 = 0.2206 | 1149.5 ± 1.1 | 14.1 ± 1.4
318.15 K, x1 = 0.2393 | 1153.6 ± 1.1 | 20.21 ± 2
318.15 K, x1 = 0.2655 | 1158.3 ± 1.2 | 29.44 ± 3
318.15 K, x1 = 0.2745 | 1159.8 ± 1.2 | 32.5 ± 3.3
323.15 K, x1 = 0.003 | 993.7 ± 1.1 | –
323.15 K, x1 = 0.0072 | 1001.9 ± 1.1 | –
323.15 K, x1 = 0.0119 | 1010.3 ± 1.1 | –
323.15 K, x1 = 0.0427 | 1055.5 ± 1 | 1.261 ± 0.13
323.15 K, x1 = 0.0615 | 1074.7 ± 1 | 1.945 ± 0.2
323.15 K, x1 = 0.0839 | 1092.5 ± 1 | 2.77 ± 0.28
323.15 K, x1 = 0.1192 | 1113 ± 1 | 4.499 ± 0.45
323.15 K, x1 = 0.1491 | 1125.8 ± 1 | 6.029 ± 0.6
323.15 K, x1 = 0.2004 | 1141.2 ± 1.1 | 9.723 ± 0.98
323.15 K, x1 = 0.2206 | 1145.9 ± 1.1 | 12.33 ± 1.2
323.15 K, x1 = 0.2393 | 1150.1 ± 1.1 | 15.88 ± 1.6
323.15 K, x1 = 0.2655 | 1154.8 ± 1.1 | 22.79 ± 2.3
323.15 K, x1 = 0.2745 | 1156.3 ± 1.2 | 25.06 ± 2.5
328.15 K, x1 = 0.003 | 990.9 ± 1.1 | –
328.15 K, x1 = 0.0072 | 999.4 ± 1.1 | –
328.15 K, x1 = 0.0119 | 1007.7 ± 1.1 | –
328.15 K, x1 = 0.0427 | 1052.2 ± 1 | 1.11 ± 0.11
328.15 K, x1 = 0.0615 | 1071.2 ± 1 | 1.682 ± 0.17
328.15 K, x1 = 0.0839 | 1088.9 ± 1 | 2.369 ± 0.24
328.15 K, x1 = 0.1192 | 1109.3 ± 1 | 3.749 ± 0.38
328.15 K, x1 = 0.1491 | 1122.1 ± 1 | 5.354 ± 0.54
328.15 K, x1 = 0.2004 | 1137.5 ± 1.1 | 8.195 ± 0.82
328.15 K, x1 = 0.2206 | 1142.3 ± 1.1 | 10.68 ± 1.1
328.15 K, x1 = 0.2393 | 1146.5 ± 1.1 | 12.74 ± 1.3
328.15 K, x1 = 0.2655 | 1151.3 ± 1.1 | 18.03 ± 1.8
328.15 K, x1 = 0.2745 | 1152.8 ± 1.2 | 19.71 ± 2
333.15 K, x1 = 0.003 | 989.3 ± 1.1 | –
333.15 K, x1 = 0.0072 | 996.3 ± 1.1 | –
333.15 K, x1 = 0.0119 | 1004.9 ± 1.1 | –
333.15 K, x1 = 0.0427 | 1048.8 ± 1 | 1.034 ± 0.1
333.15 K, x1 = 0.0615 | 1067.6 ± 1 | 1.474 ± 0.15
333.15 K, x1 = 0.0839 | 1085.2 ± 1 | 2.055 ± 0.21
333.15 K, x1 = 0.1192 | 1105.5 ± 1 | 3.014 ± 0.3
333.15 K, x1 = 0.1491 | 1118.4 ± 1 | 4.513 ± 0.45
333.15 K, x1 = 0.2004 | 1132.9 ± 1.1 | 7.033 ± 0.71
333.15 K, x1 = 0.2206 | 1138.7 ± 1.1 | 8.945 ± 0.9
333.15 K, x1 = 0.2393 | 1143 ± 1.1 | 10.47 ± 1.1
333.15 K, x1 = 0.2655 | 1147.7 ± 1.1 | 14.56 ± 1.5
333.15 K, x1 = 0.2745 | 1149.3 ± 1.2 | 15.86 ± 1.6
338.15 K, x1 = 0.003 | 986 ± 1.1 | –
338.15 K, x1 = 0.0072 | 993.1 ± 1.1 | –
338.15 K, x1 = 0.0119 | 1002 ± 1.1 | –
338.15 K, x1 = 0.0427 | 1045.4 ± 1 | 0.886 ± 0.089
338.15 K, x1 = 0.0615 | 1064 ± 1 | 1.3 ± 0.13
338.15 K, x1 = 0.0839 | 1081.4 ± 1 | 1.835 ± 0.18
338.15 K, x1 = 0.1192 | 1101.8 ± 1 | 2.724 ± 0.27
338.15 K, x1 = 0.1491 | 1114.7 ± 1 | 4.032 ± 0.4
338.15 K, x1 = 0.2004 | 1131.2 ± 1.1 | 6.088 ± 0.61
338.15 K, x1 = 0.2206 | 1135.1 ± 1.1 | 7.421 ± 0.74
338.15 K, x1 = 0.2393 | 1139.4 ± 1.1 | 8.696 ± 0.87
338.15 K, x1 = 0.2655 | 1144.2 ± 1.1 | 11.95 ± 1.2
338.15 K, x1 = 0.2745 | 1145.8 ± 1.2 | 12.94 ± 1.3
343.15 K, x1 = 0.003 | 983.6 ± 1.1 | –
343.15 K, x1 = 0.0072 | 990.1 ± 1.1 | –
343.15 K, x1 = 0.0119 | 999 ± 1.1 | –
343.15 K, x1 = 0.0427 | 1041.8 ± 1 | 0.85 ± 0.085
343.15 K, x1 = 0.0615 | 1060.3 ± 1 | 1.142 ± 0.12
343.15 K, x1 = 0.0839 | 1077.7 ± 1 | 1.634 ± 0.16
343.15 K, x1 = 0.1192 | 1098 ± 1 | 2.382 ± 0.24
343.15 K, x1 = 0.1491 | 1110.9 ± 1 | 3.697 ± 0.37
343.15 K, x1 = 0.2004 | 1126.4 ± 1.1 | 5.341 ± 0.54
343.15 K, x1 = 0.2206 | 1131.5 ± 1.1 | 6.243 ± 0.63
343.15 K, x1 = 0.2393 | 1135.9 ± 1.1 | 7.34 ± 0.74
343.15 K, x1 = 0.2655 | 1140.6 ± 1.1 | 9.976 ± 1
343.15 K, x1 = 0.2745 | 1142.3 ± 1.2 | 10.75 ± 1.1
